In patent US20130065910A1, “ORAL MECLIZINE AQUEOUS FORMULATIONS WITH TASTE FLAVORING AGENT” (COMPREHENSIVE DRUG ENTERPRISES LTD., priority 2010, published 2013):
Counter-ions that a name gives are not always drawn.

Tests used:
histamine [1] = conditions: guinea pigs; cited from earlier work
histamine [2] = conditions: in vivo; cited from earlier work
acetylcholine = conditions: in vivo; cited from earlier work
[3] = system: isolated guinea pig ileum; conditions: cited from earlier work
[4] = up to 225 mg/day for 9.5 years; cited from earlier work
[5] = Solubility of meclizine hydrochloride in Solutol HS15 and HP-β-CD solutions; assay type: physicochemical; conditions: aqueous with cosolvent or surfactant or cyclodextrin, thermodynamic from solid, room temperature (22° C.)
Description: The ability of Solutol® HS15 and HP-β-CD to enhance the aqueous solubility of meclizine hydrochloride is determined in this example.
Aqueous solutions containing 0.1, 0.5, 1, 2.5, 5, 10, 15, 20, and 25% (w/v) (w/v) of Solutol® HS15 or HP-β-CD solubilizers were prepared. 10 mg samples of meclizine hydrochloride were added to a 4 ml portion of each of the above solutions. The samples were left to be stirred overnight at room temperature (22° C.). If during this time all drug dissolved, additional meclizine was added until a suspension was formed (i.e. saturated drug solution formed). After further stirring for up to 24 hours, suspensions were centrifuged at 14000 rpm for 10 minutes, and then the supernatants were filtered (0.45 μm filter, Sartorius, Germany) to obtain saturated meclizine hydrochloride solutions. The filtrate samples were diluted and detected by HPLC and the concentration of meclizine hydrochloride in the samples was calculated with the calibration curve made from standard solutions of meclizine hydrochloride.

[6] = cited from earlier work

Cc1cccc(CN2CCN(C(c3ccccc3)c3ccc(Cl)cc3)CC2)c1 (stereo not shown) [meclizine, 1-[(4-chlorophenyl)-phenyl-methyl]-4-[(3-methylphenyl)methyl]piperazine]
protective activity against nebulized histamine and lethal doses of intravenously injected histamine (histamine [1]): marked protective activity | blocking the vasodepressor response to histamine (histamine [2]): marked effect | blocking action against acetylcholine (acetylcholine): slight blocking action | inhibiting the spasmogenic action of histamine [3]: relatively weak | tolerability (adverse effects) [4]: no adverse effect reported

Cc1cccc(CN2CCN(C(c3ccccc3)c3ccc(Cl)cc3)CC2)c1 (stereo not shown) [meclizine hydrochloride]
solubility ([5]; 0.1% (w/v) HP-β-CD aqueous solution): 3.4 mg/mL | solubility ([5]; 0.1% (w/v) Solutol HS15 aqueous solution): 2.6 mg/mL | solubility ([5]; 0.5% (w/v) HP-β-CD aqueous solution): 6.1 mg/mL | solubility ([5]; 0.5% (w/v) Solutol HS15 aqueous solution): 3.2 mg/mL | solubility ([5]; 1% (w/v) HP-β-CD aqueous solution): 7.1 mg/mL | solubility ([5]; 1% (w/v) Solutol HS15 aqueous solution): 4.3 mg/mL | solubility ([5]; 2.5% (w/v) HP-β-CD aqueous solution): 9.9 mg/mL | solubility ([5]; 2.5% (w/v) Solutol HS15 aqueous solution): 5.2 mg/mL | solubility ([5]; 5% (w/v) HP-β-CD aqueous solution): 14.3 mg/mL | solubility ([5]; 5% (w/v) Solutol HS15 aqueous solution): 9.2 mg/mL | solubility ([5]; 10% (w/v) HP-β-CD aqueous solution): 24.6 mg/mL | solubility ([5]; 10% (w/v) Solutol HS15 aqueous solution): 15.4 mg/mL | solubility ([5]; 15% (w/v) HP-β-CD aqueous solution): 30.5 mg/mL | solubility ([5]; 15% (w/v) Solutol HS15 aqueous solution): 22.8 mg/mL | solubility ([5]; 20% (w/v) HP-β-CD aqueous solution): 34.3 mg/mL | solubility ([5]; 20% (w/v) Solutol HS15 aqueous solution): 36.8 mg/mL | solubility ([5]; 25% (w/v) HP-β-CD aqueous solution): 37.9 mg/mL | solubility ([5]; 25% (w/v) Solutol HS15 aqueous solution): 40.1 mg/mL | solubility in alcohol ([6]; alcohol): slightly soluble | solubility in water ([6]; water): practically insoluble
